Assay results reported in ChEMBL document CHEMBL4840375, “Ring A/B-Modified 17β-Hydroxywithanolide Analogues as Antiproliferative Agents for Prostate Cancer and Potentiators of Immunotherapy for Renal Carcinoma and Melanoma” (J Nat Prod, 2021).

What was measured:
[1] = tested on: LNCaP; assay: Antiproliferative activity against human LNCaP cells assessed as inhibition of cell proliferation incubated for 72 hrs by MTT assay; assay type: functional, cell-based
[2] = tested on: CWR22R; assay: Antiproliferative activity against human 22Rv1 cells assessed as inhibition of cell proliferation incubated for 72 hrs by MTT assay; assay type: functional, cell-based; details: 22Rv1, 72 h
[3] = tested on: ACHN; assay: Antiproliferative activity against human ACHN cells assessed as inhibition of cell proliferation incubated for 72 hrs by MTT assay; assay type: functional, cell-based
[4] = tested on: M14; assay: Antiproliferative activity against human M14 cells assessed as inhibition of cell proliferation incubated for 72 hrs by MTT assay; assay type: functional, cell-based; details: M14, 72 h
[5] = tested on: SK-MEL-28; assay: Antiproliferative activity against human SK-MEL-28 cells assessed as inhibition of cell proliferation incubated for 72 hrs by MTT assay; assay type: functional, cell-based; details: SK-MEL-28, 72 h
[6] = tested on: HFF; assay: Cytotoxicity against human HFF cells assessed as reduction in cell viability incubated for 72 hrs by MTT assay; assay type: cell-based
[7] = tested on: ACHN; assay: Antiproliferative activity against human ACHN cells assessed as inhibition of cell proliferation incubated for 24 hrs by MTT assay; assay type: functional, cell-based
[8] = tested on: ACHN; assay: Potentiation of TRAIL-induced antiproliferative activity against human ACHN cells assessed as reduction in cell numbers by measuring IC50 pretreated with compound for 2 hrs followed by TRAIL addition and measured after 24 hrs by MTT assay; assay type: functional, cell-based; further: test concentration or dose not given here
[9] = tested on: M14; assay: Antiproliferative activity against human M14 cells assessed as inhibition of cell proliferation incubated for 48 hrs by MTT assay; assay type: functional, cell-based; details: M14, 48 h
[10] = tested on: SK-MEL-28; assay: Antiproliferative activity against human SK-MEL-28 cells assessed as inhibition of cell proliferation incubated for 48 hrs by MTT assay; assay type: functional, cell-based; details: SK-MEL-28, 48 h
[11] = tested on: M14; assay: Potentiation of poly I:C-induced antiproliferative activity against human M14 cells assessed as reduction in cell numbers by measuring IC50 pretreated with compound for 2 hrs followed by poly I:C addition and measured after 48 hrs by MTT assay; assay type: functional, cell-based; further: test concentration or dose not given here
[12] = tested on: SK-MEL-28; assay: Potentiation of poly I:C-induced antiproliferative activity against human SK-MEL-28 cells assessed as reduction in cell numbers by measuring IC50 pretreated with compound for 2 hrs followed by poly I:C addition and measured after 48 hrs by MTT assay; assay type: functional, cell-based; further: test concentration or dose not given here
[13] = Selectivity ratio of IC50 for HFF cells to IC50 for human LNCaP cells; assay type: toxicity; details: HFF cells versus LNCaP cells, read-out: Ratio IC50
[14] = Selectivity ratio of IC50 for HFF cells to IC50 for human 22Rv1 cells

SMILES	IC50 [1] [µM]	IC50 [3] [µM]	IC50 [5] [µM]	IC50 [7] [µM]	IC50 [8] [µM]	IC50 [10] [µM]	IC50 [12] [µM]	IC50 [2] [µM]	IC50 [4] [µM]	IC50 [6] [µM]	IC50 [9] [µM]	IC50 [11] [µM]	selectivity ratio [13]	Ratio IC50 [14]
CC(=O)OC[C@]12CC[C@H]3[C@@H](C[C@H]4O[C@]45[C@H](O)C=CC(=O)[C@]35C)[C@]1(O)CC[C@@]2(O)[C@@](C)(O)C1CC(C)=C(C)C(=O)O1 (some centres not stated)	1.74	3.93	3.03	> 5	0.27	> 5	4.72	0.33	> 5	> 5	> 5	> 5		
CC(=O)OC[C@]12CC[C@H]3[C@@H](C[C@@H]4O[C@@]45CC=CC(=O)[C@]35C)[C@]1(O)CC[C@@]2(O)[C@@](C)(O)C1CC(C)=C(C)C(=O)O1 (some centres not stated)		> 5	> 5			> 5	4.56	0.58	> 5	> 5	> 5	> 5		
CC(=O)OC[C@]12CC[C@H]3[C@@H](C[C@H]4O[C@]45[C@@H](O)C=CC(=O)[C@]35C)[C@]1(O)CC[C@@]2(O)[C@@](C)(O)C1CC(C)=C(C)C(=O)O1 (some centres not stated)	3.52	> 5	> 5			> 5	4.61	1.53	> 5	> 5	> 5	> 5		
COc1cccc2c1C(=O)c1c(O)c3c(c(O)c1C2=O)C[C@@](O)(C(=O)CO)C[C@@H]3O[C@H]1C[C@H](N)[C@H](O)[C@H](C)O1 [DOXORUBICIN]										0.15				
CC(=O)OC[C@]12CC[C@H]3[C@@H](C[C@H]4O[C@]45CC=CC(=O)[C@]35C)[C@]1(O)CC[C@@]2(O)[C@@](C)(O)C1CC(C)=C(C)C(=O)O1 (some centres not stated)			> 5	> 5	0.16	> 5	0.11		1.57	2.29	> 5	0.11	115	75
CC(=O)OC[C@]12CC[C@H]3[C@@H](C[C@@H](OC(C)=O)[C@]45O[C@H]4C=CC(=O)[C@]35C)[C@]1(O)CC[C@@]2(O)[C@@](C)(O)C1CC(C)=C(C)C(=O)O1 (some centres not stated)	> 5	> 5	> 5					1.37	> 5	> 5				
CC(=O)OC[C@]12CC[C@H]3[C@@H](CC=C4C=CCC(=O)[C@@]43C)[C@]1(O)CC[C@@]2(O)[C@@](C)(O)C1CC(C)=C(C)C(=O)O1 (some centres not stated)		> 5	> 5			> 5	4.49	0.97	> 5	> 5	> 5	> 5		
CC(=O)OC[C@]12CC[C@H]3[C@@H](C[C@H]4O[C@]45C(=O)C=CC(=O)[C@]35C)[C@]1(O)CC[C@@]2(O)[C@@](C)(O)C1CC(C)=C(C)C(=O)O1 (some centres not stated)	> 5	> 5	> 5					> 5	> 5	> 5				
CC(=O)OC[C@]12CC[C@H]3[C@@H](CC(=O)C4=CC=CC(=O)[C@@]43C)[C@]1(O)CC[C@@]2(O)[C@@](C)(O)C1CC(C)=C(C)C(=O)O1 (some centres not stated)	> 5	> 5	> 5			> 5	> 5	0.5	2.34	> 5	> 5	> 5		
CC(=O)OC[C@]12CC[C@H]3[C@@H](CC=C4CC=CC(=O)[C@@]43C)[C@]1(O)CC[C@@]2(O)[C@@](C)(O)C1CC(C)=C(C)C(=O)O1 (some centres not stated)		3.09	> 5	> 5	0.56	> 5	1.77	0.13	> 5	> 5	> 5	2.81		
CC(=O)OC[C@]12CC[C@H]3[C@@H](C[C@H]4O[C@]45CCCC(=O)[C@]35C)[C@]1(O)CC[C@@]2(O)[C@@](C)(O)C1CC(C)=C(C)C(=O)O1 (some centres not stated)	> 5	> 5	> 5					2.56	> 5	> 5				

Continued, in another order:

IC50 [1] [µM]	IC50 [3] [µM]	IC50 [5] [µM]	IC50 [7] [µM]	IC50 [8] [µM]	IC50 [10] [µM]	IC50 [12] [µM]	SMILES	IC50 [2] [µM]	IC50 [4] [µM]	IC50 [6] [µM]	IC50 [9] [µM]	IC50 [11] [µM]	selectivity ratio [13]	Ratio IC50 [14]
> 5	> 5	> 5					CC(=O)OC[C@]12CC[C@H]3[C@@H](C[C@@H](O)[C@]45O[C@H]4C=CC(=O)[C@]35C)[C@]1(O)CC[C@@]2(O)[C@@](C)(O)C1CC(C)=C(C)C(=O)O1 (some centres not stated)	> 5	> 5	> 5				
1.5	3.31	2.56	> 5	0.25	> 5	2.62	CC(=O)OC[C@]12CC[C@H]3[C@@H](C[C@H]4O[C@]45[C@H](OC(C)=O)C=CC(=O)[C@]35C)[C@]1(O)CC[C@@]2(O)[C@@](C)(O)C1CC(C)=C(C)C(=O)O1 (some centres not stated)	0.21	> 5	> 5	> 5	> 5		
> 5	> 5	> 5					CC(=O)OC[C@]12CC[C@H]3[C@@H](CC(=O)[C@]45O[C@H]4C=CC(=O)[C@]35C)[C@]1(O)CC[C@@]2(O)[C@@](C)(O)C1CC(C)=C(C)C(=O)O1 (some centres not stated)	> 5	> 5	> 5				
2	> 5	> 5					CC(=O)OC[C@]12CC[C@H]3[C@@H](C[C@H](OC(C)=O)C4=CC=CC(=O)[C@@]43C)[C@]1(O)CC[C@@]2(O)[C@@](C)(O)C1CC(C)=C(C)C(=O)O1 (some centres not stated)	1.14	> 5	> 5				
> 5	> 5	> 5					CC(=O)OC[C@]12CC[C@H]3[C@@H](CC=C4CCCC(=O)[C@@]43C)[C@@]1(O)CC[C@@]2(O)[C@@](C)(O)C1CC(C)=C(C)C(=O)O1 (some centres not stated)	> 5	> 5	> 5				
0.92	1.27	1.55	> 5	0.25	2.73	1.38	CC(=O)OC[C@]12CC[C@H]3[C@@H](C[C@H]4O[C@]45[C@@H](OC(C)=O)C=CC(=O)[C@]35C)[C@]1(O)CC[C@@]2(O)[C@@](C)(O)C1CC(C)=C(C)C(=O)O1 (some centres not stated)	0.25	> 5	1.52	> 5	1.67		
> 5	> 5	> 5					CC(=O)OC[C@]12CC[C@H]3[C@@H](C[C@H](O)C4=CC=CC(=O)[C@@]43C)[C@]1(O)CC[C@@]2(O)[C@@](C)(O)C1CC(C)=C(C)C(=O)O1 (some centres not stated)	> 5	> 5	> 5				
0.68							CC(=O)OC[C@]12CC[C@H]3[C@@H](CC=C4[C@@H](OC(C)=O)C=CC(=O)[C@@]43C)[C@]1(O)CC[C@@]2(O)[C@@](C)(O)C1CC(C)=C(C)C(=O)O1 (some centres not stated)	0.13	1.43	2.69				
2.96	> 5	> 5					CC(=O)OC[C@]12CC[C@H]3[C@@H](C[C@@H](O)C4=CC=CC(=O)[C@@]43C)[C@]1(O)CC[C@@]2(O)[C@@](C)(O)C1CC(C)=C(C)C(=O)O1 (some centres not stated)	1.89	> 5	> 5				
1	> 5	> 5					CC(=O)OC[C@]12CC[C@H]3[C@@H](C[C@@H](OC(C)=O)C4=CC=CC(=O)[C@@]43C)[C@]1(O)CC[C@@]2(O)[C@@](C)(O)C1CC(C)=C(C)C(=O)O1 (some centres not stated)	0.63	> 5	> 5				
> 5	> 5	> 5					CC(=O)OC[C@]12CC[C@H]3[C@@H](C[C@H](OC(C)=O)[C@]45O[C@H]4C=CC(=O)[C@]35C)[C@]1(O)CC[C@@]2(O)[C@@](C)(O)C1CC(C)=C(C)C(=O)O1 (some centres not stated)	3.08	> 5	> 5				
0.35							CC(=O)OC[C@]12CC[C@H]3[C@@H](CC=C4[C@@H](O)C=CC(=O)[C@@]43C)[C@]1(O)CC[C@@]2(O)[C@@](C)(O)C1CC(C)=C(C)C(=O)O1 (some centres not stated)	0.08	0.45	> 5				
0.53	> 5	> 5					CC(=O)OC[C@]12CC[C@H]3[C@@H](C[C@H](O)[C@]45O[C@H]4C=CC(=O)[C@]35C)[C@]1(O)CC[C@@]2(O)[C@@](C)(O)C1CC(C)=C(C)C(=O)O1 (some centres not stated)	0.25	> 5	> 5				
